In PMC12436592 (Nature Communications, 2025):
Several values for one entry are separate records, joined by “and”; a condition that tells them apart may be missing. Equal entries are not always repeated. One block for each compound: values may come before it.

Legend:
rP2X7R = target: T1, rP2X7R (Rattus norvegicus, UniProt Q64663); experiment: Calcium influx assay, 1321N1 astrocytoma cells, BzATP EC80; assay type: cell-based; set-up: expressed in transfected cells; settings: for IC50: 1321N1 cells, BzATP EC80, mean ± SD
T1 sequence (Q64663 1-595): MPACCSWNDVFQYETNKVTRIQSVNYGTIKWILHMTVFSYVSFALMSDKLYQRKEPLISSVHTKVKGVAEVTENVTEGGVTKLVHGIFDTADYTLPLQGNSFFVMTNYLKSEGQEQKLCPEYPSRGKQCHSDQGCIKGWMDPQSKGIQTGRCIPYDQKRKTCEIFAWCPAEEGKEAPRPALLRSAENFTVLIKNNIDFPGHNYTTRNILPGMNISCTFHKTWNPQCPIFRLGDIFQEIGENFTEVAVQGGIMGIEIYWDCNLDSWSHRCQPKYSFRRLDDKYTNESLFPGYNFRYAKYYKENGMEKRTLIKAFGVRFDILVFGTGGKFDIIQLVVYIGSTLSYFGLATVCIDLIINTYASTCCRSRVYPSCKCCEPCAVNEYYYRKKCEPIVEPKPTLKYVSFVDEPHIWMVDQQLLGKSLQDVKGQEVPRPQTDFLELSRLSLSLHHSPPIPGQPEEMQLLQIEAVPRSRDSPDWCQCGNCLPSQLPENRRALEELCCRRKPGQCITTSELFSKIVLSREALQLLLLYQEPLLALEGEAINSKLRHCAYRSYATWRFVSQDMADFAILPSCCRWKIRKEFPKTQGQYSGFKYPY
From the text: (§1) . For 1321N1 astrocytoma cells stably expressing the human, rat, or mouse P2X7Rs, or hP2X2Rs or hP2X4Rs, the fluorescent Ca^2+-chelating dye Fluo-4 acetoxymethyl ester (Fluo-4 AM, Thermo Fisher Scientific, Dreieich, Germany) was used. For 1321N1 astrocytoma cell lines recombinantly expressing the hP2X1Rs or hP2X3Rs, the FLIPR® Calcium 5 Assay Kit (Molecular Devices, San José, CA, USA) was employed. Human, rat, and mouse P2X7Rs as well as hP2X1Rs, hP2X2Rs, hP2X3Rs, and hP2X4Rs were recombinantly expressed in 1321N1 astrocytoma cells using a retroviral expression system[72]–[74].
(§2) On the first day, 45,000 cells per well (30,000 cells for the human P2X3 receptor-expressing cells) were seeded into a 96-well polystyrene microplate with a black, flat bottom in a final volume of 200 µL. After overnight incubation at 37 °C and 10% CO2 (5% CO2 for the human P2X3R-expressing cell line), the medium was removed by inverting the plate, and the cells were loaded with dye solution. Hanks’ balanced salt solution (HBSS, Thermo Fisher Scientific, Dreieich, Germany) was used as the assay buffer for human P2X1R, P2X2R, P2X3R, and P2X4R. For the P2X7Rs, a different assay buffer was used: 150 mM sodium-glutamate, 5 mM KCl, 0.5 mM CaCl2, 0.1 mM MgCl2, 10 mM D-glucose, 25 mM 4-(2-hydroxyethyl)-1-piperazineethanesulfonic acid (HEPES), pH 7.4. The dye solutions were freshly prepared. The Fluo-4 AM solution contained 3 µM of Fluo-4 AM in assay buffer and 1% of the non-ionic detergent Pluronic F-127® (Sigma-Aldrich, Taufkirchen, Germany). The Calcium 5 dye, used for hP2X1Rs and hP2X3Rs, was prepared in HBSS buffer. Cells were loaded with Fluo-4 AM and incubated for 1 h at room temperature with gentle shaking (100 rpm), while those loaded with the Calcium 5 dye were incubated for 1 h at 37 °C. After incubation, the dye solution was carefully removed from the plate, and buffer was added to the cells for the evaluation of agonists. […] The agonist solution was prepared in a 96-well transparent plate, obtaining the respective EC80 values. As a control, assay buffer without the test compound was used. After 30 min of incubation with antagonist, the plates were measured using a fluorescence imaging plate reader NOVOstar (BMG Labtech GmbH, Offenburg, Germany) at an excitation wavelength of 485 nm and an emission wavelength of 520 nm, for 30 s at 0.4 s intervals. Calcium influx measurements were then initiated by automatic addition of 20 µL of agonist solution by the plate reader’s pipetting device. Data were analyzed using Microsoft Excel and GraphPad Prism (Version 8.0, San Diego, CA, USA). EC80 and IC50 values were calculated using nonlinear regression with a sigmoidal dose-response equation.

hP2X7R = target: T2, hP2X7R (Homo sapiens, UniProt Q99572); experiment: as above; assay type: cell-based; set-up: expressed in transfected cells; settings: for IC50: 1321N1 cells, BzATP EC80, mean ± SD
T2 sequence (Q99572 1-595): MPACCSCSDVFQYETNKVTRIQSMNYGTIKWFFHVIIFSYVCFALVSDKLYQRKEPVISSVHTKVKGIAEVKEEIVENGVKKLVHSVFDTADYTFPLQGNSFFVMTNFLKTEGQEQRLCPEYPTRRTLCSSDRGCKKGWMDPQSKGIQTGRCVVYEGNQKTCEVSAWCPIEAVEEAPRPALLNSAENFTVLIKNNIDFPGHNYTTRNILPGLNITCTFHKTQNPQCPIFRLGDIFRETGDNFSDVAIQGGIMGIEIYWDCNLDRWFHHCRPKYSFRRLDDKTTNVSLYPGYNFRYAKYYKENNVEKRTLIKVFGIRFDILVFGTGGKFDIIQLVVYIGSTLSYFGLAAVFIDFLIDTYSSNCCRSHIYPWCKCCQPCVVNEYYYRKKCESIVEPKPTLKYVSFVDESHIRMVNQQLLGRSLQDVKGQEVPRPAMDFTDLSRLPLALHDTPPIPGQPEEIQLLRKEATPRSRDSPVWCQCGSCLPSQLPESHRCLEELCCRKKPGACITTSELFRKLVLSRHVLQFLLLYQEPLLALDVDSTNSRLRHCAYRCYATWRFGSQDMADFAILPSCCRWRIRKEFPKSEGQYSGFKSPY
From the text: For 1321N1 astrocytoma cells stably expressing the human, rat, or mouse P2X7Rs, or hP2X2Rs or hP2X4Rs, the fluorescent Ca^2+-chelating dye Fluo-4 acetoxymethyl ester (Fluo-4 AM, Thermo Fisher Scientific, Dreieich, Germany) was used. For 1321N1 astrocytoma cell lines recombinantly expressing the hP2X1Rs or hP2X3Rs, the FLIPR® Calcium 5 Assay Kit (Molecular Devices, San José, CA, USA) was employed. Human, rat, and mouse P2X7Rs as well as hP2X1Rs, hP2X2Rs, hP2X3Rs, and hP2X4Rs were recombinantly expressed in 1321N1 astrocytoma cells using a retroviral expression system[72]–[74].
as §2

hP2X4R = system: T3, hP2X4R; experiment: Calcium influx assay, 1321N1 astrocytoma cells, ATP EC80; assay type: cell-based, human; settings: 10 μM antagonist, ATP 300 nM
T3 construct: expressed in transfected cells
From the text: as §1, §2

hP2X2R = system: T4, hP2X2R; experiment: as above; assay type: cell-based, human; settings: 10 μM antagonist, ATP 1000 nM
T4 construct: expressed in transfected cells
From the text: as §1, §2

activity at 0.03 µM (rP2X7R; 1321-N1, Log(c) M -7.52288, read-out: normalized calcium signal, rP2X7R IC50 curve): 94.8% | activity at 0.01 µM (rP2X7R; 1321-N1, Log(c) M -8, read-out: normalized calcium signal, rP2X7R IC50 curve): 98.3% | IC50 (rP2X7R): 116 ± 50 nM | IC50 (hP2X7R): 17.8 nM and 18 nM
SMILES: O=C(NNc1ccccc1Cl)C12CC3CC(CC(C3)C1)C2 [UB-ALT-P30, reference compound]
normalized calcium signal, rP2X7R IC50 curve (rP2X7R; Log(c) M -7.52288, 0.03 µM): 96.1595 and 98.0559 and 102.654 and 103.189 | normalized calcium signal, rP2X7R IC50 curve (rP2X7R; Log(c) M -8, 0.01 µM): 98.7308 and 105.449 and 107.576 and 114.231 and 110.835 | normalized calcium signal, rP2X7R IC50 curve (rP2X7R; Log(c) M -8.52288, 0.003 µM): 87.0316 and 95.5173 and 98.7016 and 89.3009 and 111.685 and 110.916 and 108.743 | normalized calcium signal, hP2X7R IC50 curve (hP2X7R; Log(c) M -9, 0.001 µM): 71.6317 and 73.6475 and 92.6717 and 89.8426 and 81.3931 | % inhibition ± SD at 10 μM, hP2X4R (hP2X4R): 44 ± 14% | % inhibition ± SD at 10 μM, hP2X2R (hP2X2R): 29 ± 7%

activity at 0.003 µM (rP2X7R; 1321-N1, Log(c) M -8.52288, read-out: normalized calcium signal, rP2X7R IC50 curve): 92.9% | activity at 0.001 µM (rP2X7R; 1321-N1, Log(c) M -9, read-out: normalized calcium signal, rP2X7R IC50 curve): 83% | activity at 0.0003 µM (rP2X7R; 1321-N1, Log(c) M -9.52288, read-out: normalized calcium signal, rP2X7R IC50 curve): 92.1% | IC50 (rP2X7R): 40.6 ± 10.4 nM | normalized calcium signal, rP2X7R IC50 curve (rP2X7R; Log(c) M -9, 0.001 µM): 97.4351 | activity at 0.0003 µM (hP2X7R; 1321-N1, Log(c) M -9.52288, read-out: normalized calcium signal, hP2X7R IC50 curve): 82.4% | activity at 0.0001 µM (hP2X7R; 1321-N1, Log(c) M -10, read-out: normalized calcium signal, hP2X7R IC50 curve): 110% | activity at 30 pM (hP2X7R; 1321-N1, Log(c) M -10.5229, read-out: normalized calcium signal, hP2X7R IC50 curve): 100% | IC50 (hP2X7R): 0.514 ± 0.035 nM | normalized calcium signal, hP2X7R IC50 curve (hP2X7R; Log(c) M -10, 0.0001 µM): 91.6497 and 103.346 and 103.977
SMILES: CC12CC3CC1(C)C1(C)CC3(C(=O)NNc3ccccc3Cl)CC21C [UB-MBX-46]
normalized calcium signal, rP2X7R IC50 curve (rP2X7R; Log(c) M -8, 0.01 µM): 92.0673 and 92.0463 and 93.4263 and 100.969 and 74.9729 and 70.4733 | normalized calcium signal, rP2X7R IC50 curve (rP2X7R; Log(c) M -8.52288, 0.003 µM): 98.336 and 95.4706 and 107.675 and 91.9395 | times more potent than UB-ALT-P30 on the rP2X7R (rP2X7R; calcium influx): ~ 3 x | normalized calcium signal, hP2X7R IC50 curve (hP2X7R; Log(c) M -9.52288, 0.0003 µM): 83.2395 and 75.8405 and 85.4678 and 91.9881 | times more potent than UB-ALT-P30 on the hP2X7R (hP2X7R; calcium influx): ~ 35 x | % inhibition ± SD at 10 μM, hP2X4R (hP2X4R): 41 ± 19% | % inhibition ± SD at 10 μM, hP2X2R (hP2X2R): 15 ± 9%
